Source: PMC8550792, “Evolution of kinase polypharmacology across HSP90 drug discovery” (Cell Chemical Biology, 2021)
Where “and” joins values, the source holds several entries; their conditions need not be identical. Identical values can stand only once. Like-named read-outs stand apart in the source and are kept apart here.

Experiments:
382 unique human kinases [1] = biological target: T1, 382 unique human kinases (Homo sapiens, UniProt P42345); test: biochemical; type: biochemical; conditions: mTOR/FRAP1; compound at 10 uM; duplicate values; read-out: % Enzyme Activity (relative to DMSO controls)
T1 construct: purchased Reaction Biology (HotSpot contract assay)

[2] = human, in vivo; cited from earlier work
DDR1 = DDR1 (Homo sapiens, UniProt Q08345); test: NanoBRET intracellular target engagement
TRKA-TFG (TRK-T3) = biological target: T2, TRKA-TFG (TRK-T3) (Homo sapiens, UniProt P04629+Q92734); test: HotSpot in vitro kinase radiometric assay; type: biochemical
T2 construct: purchased Reaction Biology (HotSpot contract assay)

HSP90B1 = test system: HSP90B1; set-up: method as in ChEMBL23 (accessed: 23/08/2018); conditions: average of reported values; ref ChEMBL23 (accessed: 23/08/2018); cited from earlier work
382 unique human kinases [3] = biological target: T3, 382 unique human kinases (Homo sapiens, UniProt P10721, D816I); test: biochemical; type: biochemical; conditions: c-Kit (D816I), 10 uM
T3 construct: purchased Reaction Biology (HotSpot contract assay)

382 unique human kinases [4] = biological target: T4, 382 unique human kinases (Homo sapiens, UniProt P07947, T348I); test: biochemical; type: biochemical; conditions: YES1 (T348I), compound at 10 uM, duplicate values
T4 construct: purchased Reaction Biology (HotSpot contract assay)

382 unique human kinases [5] = biological target: T5, 382 unique human kinases (Homo sapiens, UniProt P00533, C797S/L858R/T790M); test: biochemical; type: biochemical; conditions: EGFR (T790M/C797S/L858R), compound at 10 uM, duplicate values
T5 construct: purchased Reaction Biology (HotSpot contract assay)

382 unique human kinases [6] = biological target: T6, 382 unique human kinases (Homo sapiens, UniProt P08069); test: biochemical; type: biochemical; conditions: IGF1R, compound at 10 uM, duplicate values
T6 construct: purchased Reaction Biology (HotSpot contract assay)

382 unique human kinases [7] = biological target: T7, 382 unique human kinases (Homo sapiens, UniProt O14578); test: biochemical; type: biochemical; conditions: STK21/CIT, 10 uM
T7 construct: purchased Reaction Biology (HotSpot contract assay)

382 unique human kinases [8] = biological target: T8, 382 unique human kinases (Homo sapiens, UniProt P57078); test: biochemical; type: biochemical; conditions: kinase RIPK4, compound 10 uM
T8 construct: purchased Reaction Biology (HotSpot contract assay)

382 unique human kinases [9] = biological target: T9, 382 unique human kinases (Homo sapiens, UniProt P15056, L597V); test: biochemical; type: biochemical; conditions: BRAF (L597V), compound at 10 uM, duplicate values
T9 construct: purchased Reaction Biology (HotSpot contract assay)

382 unique human kinases [10] = biological target: T10, 382 unique human kinases (Homo sapiens, UniProt P04626, V777L); test: biochemical; type: biochemical; conditions: ERBB2 (V777L), compound at 10 uM, duplicate values
T10 construct: purchased Reaction Biology (HotSpot contract assay)

382 unique human kinases [11] = biological target: T11, 382 unique human kinases (Homo sapiens, UniProt P00533, C797A); test: biochemical; type: biochemical; conditions: EGFR (C797A), 10 uM
T11 construct: purchased Reaction Biology (HotSpot contract assay)

382 unique human kinases [12] = biological target: T12, 382 unique human kinases (Homo sapiens, UniProt P15056, V600K); test: biochemical; type: biochemical; conditions: BRAF (V600K), 10 uM
T12 construct: purchased Reaction Biology (HotSpot contract assay)

382 unique human kinases [13] = biological target: T13, 382 unique human kinases (Homo sapiens, UniProt P00519, V299L); test: biochemical; type: biochemical; conditions: ABL1 (V299L), [ATP] 5 µM, compound 10 uM
T13 construct: purchased Reaction Biology (HotSpot contract assay)

382 unique human kinases [14] = biological target: T14, 382 unique human kinases (Homo sapiens, UniProt Q96S53); test: biochemical; type: biochemical; conditions: TESK2, 10 uM
T14 construct: purchased Reaction Biology (HotSpot contract assay)

382 unique human kinases [15] = biological target: T15, 382 unique human kinases (Homo sapiens, UniProt P04626, D769H); test: biochemical; type: biochemical; conditions: ERBB2 (D769H), 10 uM
T15 construct: purchased Reaction Biology (HotSpot contract assay)

382 unique human kinases [16] = biological target: T16, 382 unique human kinases (Homo sapiens, UniProt P19784); test: biochemical; type: biochemical; conditions: CK2a2, 10 uM
T16 construct: purchased Reaction Biology (HotSpot contract assay)

382 unique human kinases [17] = biological target: T17, 382 unique human kinases (Homo sapiens, UniProt P04626, D769Y); test: biochemical; type: biochemical; conditions: ERBB2 (D769Y), 10 uM
T17 construct: purchased Reaction Biology (HotSpot contract assay)

382 unique human kinases [18] = biological target: T18, 382 unique human kinases (Homo sapiens, UniProt P00519, F317L); test: biochemical; type: biochemical; conditions: ABL1 (F317L), [ATP] 5 µM, compound 10 uM
T18 construct: purchased Reaction Biology (HotSpot contract assay)

382 unique human kinases [19] = biological target: T19, 382 unique human kinases (Homo sapiens, UniProt P15056, V600D); test: biochemical; type: biochemical; conditions: BRAF (V600D), 10 uM
T19 construct: purchased Reaction Biology (HotSpot contract assay)

382 unique human kinases [20] = biological target: T20, 382 unique human kinases (Homo sapiens, UniProt P17948); test: biochemical; type: biochemical; conditions: FLT1/VEGFR1, [ATP] 2.5 µM, compound 10 uM
T20 construct: purchased Reaction Biology (HotSpot contract assay)

382 unique human kinases [21] = biological target: T21, 382 unique human kinases (Homo sapiens, UniProt P15056, G469A); test: biochemical; type: biochemical; conditions: BRAF (G469A), 10 uM
T21 construct: purchased Reaction Biology (HotSpot contract assay)

382 unique human kinases [22] = biological target: T22, 382 unique human kinases (Homo sapiens, UniProt P15056, G464V); test: biochemical; type: biochemical; conditions: BRAF (G464V), 10 uM
T22 construct: purchased Reaction Biology (HotSpot contract assay)

382 unique human kinases [23] = biological target: T23, 382 unique human kinases (Homo sapiens, UniProt P04626); test: biochemical; type: biochemical; conditions: ERBB2/HER2, 10 uM
T23 construct: purchased Reaction Biology (HotSpot contract assay)

382 unique human kinases [24] = biological target: T24, 382 unique human kinases (Homo sapiens, UniProt Q9BWU1); test: biochemical; type: biochemical; conditions: CDK19/cyclin C, 10 uM
T24 construct: purchased Reaction Biology (HotSpot contract assay)

[25] = radiometric 10-point concentration-response, n = 3, read-out: in vitro biochemical IC50, TRKA-TFG
[26] = read-out: % Enzyme Activity (relative to DMSO controls)

T2 sequence (Q92734+P04629 fused): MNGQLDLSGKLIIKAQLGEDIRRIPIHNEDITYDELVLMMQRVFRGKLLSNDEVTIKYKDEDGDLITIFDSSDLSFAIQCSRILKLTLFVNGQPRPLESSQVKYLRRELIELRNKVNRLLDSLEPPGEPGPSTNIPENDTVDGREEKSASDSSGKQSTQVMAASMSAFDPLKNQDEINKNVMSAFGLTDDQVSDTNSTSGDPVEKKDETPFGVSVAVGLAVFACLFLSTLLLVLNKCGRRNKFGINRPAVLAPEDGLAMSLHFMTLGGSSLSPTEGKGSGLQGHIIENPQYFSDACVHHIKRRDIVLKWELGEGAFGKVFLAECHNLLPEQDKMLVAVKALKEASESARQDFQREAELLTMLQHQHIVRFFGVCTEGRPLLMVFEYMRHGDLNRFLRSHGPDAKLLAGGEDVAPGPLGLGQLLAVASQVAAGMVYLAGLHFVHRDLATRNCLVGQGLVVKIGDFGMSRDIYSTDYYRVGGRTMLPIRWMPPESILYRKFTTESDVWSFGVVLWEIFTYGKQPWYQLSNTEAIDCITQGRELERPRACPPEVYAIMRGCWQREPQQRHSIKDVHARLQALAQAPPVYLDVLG
T24 sequence (Q9BWU1 whole entry): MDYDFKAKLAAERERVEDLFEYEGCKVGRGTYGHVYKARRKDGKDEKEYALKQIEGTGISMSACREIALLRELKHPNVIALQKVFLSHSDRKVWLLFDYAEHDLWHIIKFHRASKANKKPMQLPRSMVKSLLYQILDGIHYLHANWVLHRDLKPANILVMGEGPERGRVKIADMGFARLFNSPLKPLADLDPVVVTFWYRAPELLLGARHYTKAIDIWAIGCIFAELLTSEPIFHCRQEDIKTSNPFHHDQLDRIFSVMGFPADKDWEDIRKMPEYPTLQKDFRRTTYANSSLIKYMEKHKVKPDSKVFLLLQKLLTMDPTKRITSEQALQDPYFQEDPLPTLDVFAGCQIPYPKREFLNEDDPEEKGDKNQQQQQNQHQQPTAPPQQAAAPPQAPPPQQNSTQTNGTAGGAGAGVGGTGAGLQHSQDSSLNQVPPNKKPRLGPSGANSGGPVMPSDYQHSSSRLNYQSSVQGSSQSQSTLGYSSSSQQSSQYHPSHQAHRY
T22 sequence (P15056 whole entry G464V): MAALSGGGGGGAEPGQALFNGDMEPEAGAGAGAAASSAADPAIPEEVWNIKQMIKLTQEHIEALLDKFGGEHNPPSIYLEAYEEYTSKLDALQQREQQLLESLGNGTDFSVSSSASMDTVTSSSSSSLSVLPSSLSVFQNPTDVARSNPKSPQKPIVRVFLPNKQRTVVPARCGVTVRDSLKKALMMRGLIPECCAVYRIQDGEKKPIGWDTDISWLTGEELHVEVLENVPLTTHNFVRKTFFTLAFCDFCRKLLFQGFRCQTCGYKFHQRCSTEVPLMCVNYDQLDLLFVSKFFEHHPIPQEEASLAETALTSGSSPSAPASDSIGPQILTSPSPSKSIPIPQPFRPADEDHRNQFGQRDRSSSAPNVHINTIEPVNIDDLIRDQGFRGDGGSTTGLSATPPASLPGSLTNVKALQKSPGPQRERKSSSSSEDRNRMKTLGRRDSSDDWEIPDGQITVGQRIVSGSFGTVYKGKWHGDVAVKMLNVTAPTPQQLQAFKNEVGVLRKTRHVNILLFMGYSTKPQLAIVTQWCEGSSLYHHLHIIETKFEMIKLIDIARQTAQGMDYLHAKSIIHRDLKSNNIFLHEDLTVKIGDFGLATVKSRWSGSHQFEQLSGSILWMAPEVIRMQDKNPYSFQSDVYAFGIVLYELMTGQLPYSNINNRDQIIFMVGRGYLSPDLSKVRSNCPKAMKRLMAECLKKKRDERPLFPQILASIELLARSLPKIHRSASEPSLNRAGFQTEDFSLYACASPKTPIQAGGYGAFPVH
T8 sequence (P57078 whole entry): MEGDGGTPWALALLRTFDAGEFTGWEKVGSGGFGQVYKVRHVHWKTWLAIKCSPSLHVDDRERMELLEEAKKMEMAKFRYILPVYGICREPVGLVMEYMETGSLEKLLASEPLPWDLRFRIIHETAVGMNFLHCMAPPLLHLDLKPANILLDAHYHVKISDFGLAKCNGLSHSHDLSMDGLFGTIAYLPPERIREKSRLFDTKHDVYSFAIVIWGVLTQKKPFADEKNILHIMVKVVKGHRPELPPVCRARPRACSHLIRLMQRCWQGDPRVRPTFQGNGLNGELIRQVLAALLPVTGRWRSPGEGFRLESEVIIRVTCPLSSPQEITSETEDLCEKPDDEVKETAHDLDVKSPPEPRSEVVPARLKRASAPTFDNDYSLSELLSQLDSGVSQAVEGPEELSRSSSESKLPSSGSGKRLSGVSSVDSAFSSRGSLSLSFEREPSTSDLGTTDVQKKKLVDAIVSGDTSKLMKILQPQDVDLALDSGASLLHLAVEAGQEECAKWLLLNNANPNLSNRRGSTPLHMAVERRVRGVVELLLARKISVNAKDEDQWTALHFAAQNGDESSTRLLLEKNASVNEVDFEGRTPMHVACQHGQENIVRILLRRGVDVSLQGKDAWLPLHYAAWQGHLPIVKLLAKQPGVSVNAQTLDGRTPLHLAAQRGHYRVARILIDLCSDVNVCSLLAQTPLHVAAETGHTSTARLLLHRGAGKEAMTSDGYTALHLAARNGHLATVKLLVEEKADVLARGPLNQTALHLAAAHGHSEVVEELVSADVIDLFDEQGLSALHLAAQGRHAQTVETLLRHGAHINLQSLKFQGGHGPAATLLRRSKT
Sequence of DDR1 (Q08345 19-913): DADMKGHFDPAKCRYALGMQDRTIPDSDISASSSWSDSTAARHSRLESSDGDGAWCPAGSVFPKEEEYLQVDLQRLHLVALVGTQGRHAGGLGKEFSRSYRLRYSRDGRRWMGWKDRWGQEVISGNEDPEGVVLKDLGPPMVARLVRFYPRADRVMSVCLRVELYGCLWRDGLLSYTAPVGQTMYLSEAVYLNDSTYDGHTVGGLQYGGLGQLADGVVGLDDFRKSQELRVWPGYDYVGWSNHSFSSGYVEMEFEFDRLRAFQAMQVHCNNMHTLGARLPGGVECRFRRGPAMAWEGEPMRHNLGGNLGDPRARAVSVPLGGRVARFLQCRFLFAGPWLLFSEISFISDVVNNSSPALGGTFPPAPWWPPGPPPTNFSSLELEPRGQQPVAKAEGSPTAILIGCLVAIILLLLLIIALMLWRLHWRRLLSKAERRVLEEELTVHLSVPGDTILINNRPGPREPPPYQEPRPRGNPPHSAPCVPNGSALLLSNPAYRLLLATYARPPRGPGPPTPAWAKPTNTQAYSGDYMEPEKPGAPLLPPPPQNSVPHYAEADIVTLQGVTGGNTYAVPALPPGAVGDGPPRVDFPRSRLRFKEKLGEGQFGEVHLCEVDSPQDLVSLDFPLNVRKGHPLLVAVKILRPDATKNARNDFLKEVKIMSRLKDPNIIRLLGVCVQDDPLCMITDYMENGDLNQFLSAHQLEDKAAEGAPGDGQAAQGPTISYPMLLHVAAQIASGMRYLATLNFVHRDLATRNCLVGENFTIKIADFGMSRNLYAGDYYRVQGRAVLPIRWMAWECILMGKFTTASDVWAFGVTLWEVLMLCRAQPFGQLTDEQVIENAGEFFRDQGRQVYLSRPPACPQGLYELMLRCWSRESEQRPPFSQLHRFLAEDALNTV
T14 sequence (Q96S53 whole entry): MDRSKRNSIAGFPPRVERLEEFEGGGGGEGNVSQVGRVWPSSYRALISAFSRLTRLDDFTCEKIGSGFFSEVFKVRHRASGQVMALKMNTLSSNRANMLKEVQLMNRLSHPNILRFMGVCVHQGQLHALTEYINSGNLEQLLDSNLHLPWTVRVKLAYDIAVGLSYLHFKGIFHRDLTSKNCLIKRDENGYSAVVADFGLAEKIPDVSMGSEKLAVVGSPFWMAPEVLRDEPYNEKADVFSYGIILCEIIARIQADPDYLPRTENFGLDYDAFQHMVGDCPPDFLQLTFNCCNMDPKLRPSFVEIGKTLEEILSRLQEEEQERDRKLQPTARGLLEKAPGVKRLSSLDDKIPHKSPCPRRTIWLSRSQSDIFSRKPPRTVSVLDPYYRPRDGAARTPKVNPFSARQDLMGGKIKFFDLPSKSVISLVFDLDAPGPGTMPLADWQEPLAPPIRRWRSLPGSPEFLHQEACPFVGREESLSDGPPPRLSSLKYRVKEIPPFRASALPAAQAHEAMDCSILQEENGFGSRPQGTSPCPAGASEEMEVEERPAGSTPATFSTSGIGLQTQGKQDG
T9 sequence (P15056 whole entry L597V): as the sequence (P15056 whole entry G464V) above, with V464G, L597V counted along it
T12 sequence (P15056 whole entry V600K): as the sequence (P15056 whole entry G464V) above, with V464G, V600K counted along it
T16 sequence (P19784 whole entry): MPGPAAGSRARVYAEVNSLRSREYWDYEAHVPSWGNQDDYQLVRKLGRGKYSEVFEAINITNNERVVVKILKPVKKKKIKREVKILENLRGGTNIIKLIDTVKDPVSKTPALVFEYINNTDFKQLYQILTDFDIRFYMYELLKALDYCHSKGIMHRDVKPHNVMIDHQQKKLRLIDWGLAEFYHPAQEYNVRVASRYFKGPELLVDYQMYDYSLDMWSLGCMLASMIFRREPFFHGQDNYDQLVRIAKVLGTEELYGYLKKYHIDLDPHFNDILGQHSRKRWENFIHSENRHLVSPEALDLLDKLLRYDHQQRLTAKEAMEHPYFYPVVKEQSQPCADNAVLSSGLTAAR
T19 sequence (P15056 whole entry V600D): as the sequence (P15056 whole entry G464V) above, with V464G, V600D counted along it
T21 sequence (P15056 whole entry G469A): as the sequence (P15056 whole entry G464V) above, with V464G, G469A counted along it

Structure (SMILES): CC(C)c1cc(-c2n[nH]c(=O)n2-c2ccc3c(ccn3C)c2)c(O)cc1O [Ganetespib (STA9090)]
- remaining activity at 10 µM (382 unique human kinases [1]): 107%

Structure (SMILES): CC(C)c1cc(-c2n[nH]c(=O)n2-c2ccc3c(ccn3C)c2)c(O)cc1O [Ganetespib]
- Cmax,total [2]: 6 to 12 µM
- EC50 (DDR1): 75500 nM
- remaining activity at 100 µM (DDR1; HEK293, read-out: %Normalized Bret Response, DDR1 NanoBRET, HEK293, Drug Conc. 0.0001 M): 37.5%
- HILLSLOPE (TRKA-TFG (TRK-T3); TRKA-TFG, single replicate curves): -1.03 and -1.06 and -1.02
- IC50 (TRKA-TFG (TRK-T3); TRKA-TFG, single replicate curves, read-out: IC50): 328 nM and 331 nM and 326 nM
- IC50 (TRKA-TFG (TRK-T3); [25]): 329 nM
- inhibition at 1 µM (TRKA-TFG (TRK-T3); read-out: % inhibition of TRKA-TFG at 1 μM, 1 μM, secondary screening): > 80%
- inhibition at 10 µM (TRKA-TFG (TRK-T3); read-out: % inhibition of TRKA-TFG at 10 μM, 10 μM, kinome profiling): > 85%
- pActivity, HSP90B1 (HSP90B1): 8

Structure (SMILES): CCNC(=O)c1noc(-c2cc(C(C)C)c(O)cc2O)c1-c1ccc(CN2CCOCC2)cc1 [Luminespib (AUY-922)]
- % Enzyme Activity (relative to DMSO controls) (382 unique human kinases [3]): 72.16%
- remaining activity at 10 µM (382 unique human kinases [3]; [26]): 73.3%
- % Enzyme Activity (relative to DMSO controls) (382 unique human kinases [4]): 101.23%
- remaining activity at 10 µM (382 unique human kinases [4]; [26]): 103%
- % Enzyme Activity (relative to DMSO controls) (382 unique human kinases [5]): 100.18%
- remaining activity at 10 µM (382 unique human kinases [5]; [26]): 100%
- % Enzyme Activity (relative to DMSO controls) (382 unique human kinases [6]): 104.49%
- remaining activity at 10 µM (382 unique human kinases [6]; [26]): 106%
- % Enzyme Activity (relative to DMSO controls) (382 unique human kinases [7]): 76.27%
- remaining activity at 10 µM (382 unique human kinases [7]; [26]): 78.4%
- % Enzyme Activity (relative to DMSO controls) (382 unique human kinases [8]): 85.29%
- remaining activity at 10 µM (382 unique human kinases [8]; [26]): 87.2%
- % Enzyme Activity (relative to DMSO controls) (382 unique human kinases [9]): 104.65%
- remaining activity at 10 µM (382 unique human kinases [9]; [26]): 107%
- % Enzyme Activity (relative to DMSO controls) (382 unique human kinases [10]): 104.18%
- remaining activity at 10 µM (382 unique human kinases [10]; [26]): 105%

Structure (SMILES): CCNC(=O)c1noc(-c2cc(C(C)C)c(O)cc2O)c1-c1ccc(CN2CCOCC2)cc1 [Luminespib]
- % Enzyme Activity (relative to DMSO controls) (382 unique human kinases [11]): 99.37%
- remaining activity at 10 µM (382 unique human kinases [11]; [26]): 102%
- % Enzyme Activity (relative to DMSO controls) (382 unique human kinases [12]): 98.47%
- remaining activity at 10 µM (382 unique human kinases [12]; [26]): 99.2%
- % Enzyme Activity (relative to DMSO controls) (382 unique human kinases [13]): 31.43%
- remaining activity at 10 µM (382 unique human kinases [13]; [26]): 31.8%
- % Enzyme Activity (relative to DMSO controls) (382 unique human kinases [14]): 98.62%
- remaining activity at 10 µM (382 unique human kinases [14]; [26]): 100%
- % Enzyme Activity (relative to DMSO controls) (382 unique human kinases [15]): 99.65%
- remaining activity at 10 µM (382 unique human kinases [15]; [26]): 102%
- % Enzyme Activity (relative to DMSO controls) (382 unique human kinases [16]): 108.66%
- remaining activity at 10 µM (382 unique human kinases [16]; [26]): 111%
- % Enzyme Activity (relative to DMSO controls) (382 unique human kinases [17]): 99.76%
- remaining activity at 10 µM (382 unique human kinases [17]; [26]): 100%
- % Enzyme Activity (relative to DMSO controls) (382 unique human kinases [18]): 5.92%
- remaining activity at 10 µM (382 unique human kinases [18]; [26]): 6.23%
- % Enzyme Activity (relative to DMSO controls) (382 unique human kinases [19]): 98.35%
- remaining activity at 10 µM (382 unique human kinases [19]; [26]): 100%
- % Enzyme Activity (relative to DMSO controls) (382 unique human kinases [20]): 90.88%
- remaining activity at 10 µM (382 unique human kinases [20]; [26]): 91.3%
- % Enzyme Activity (relative to DMSO controls) (382 unique human kinases [21]): 98.83%
- remaining activity at 10 µM (382 unique human kinases [21]; [26]): 99.7%
- % Enzyme Activity (relative to DMSO controls) (382 unique human kinases [22]): 97.60%
- remaining activity at 10 µM (382 unique human kinases [22]; [26]): 97.9%
- % Enzyme Activity (relative to DMSO controls) (382 unique human kinases [23]): 97.41%
- remaining activity at 10 µM (382 unique human kinases [23]; [26]): 98.2%
- % Enzyme Activity (relative to DMSO controls) (382 unique human kinases [24]): 95.24%
- remaining activity at 10 µM (382 unique human kinases [24]; [26]): 96.2%
- IC50 (TRKA-TFG (TRK-T3); [25]): > 10000 nM
